Measured values reported in patent US20130150376A1, “Novel Sultam Compounds” (PFIZER INC., priority 2010, published 2013).
Structures can show the parent of a compound that is named as a salt. Where two headings read alike, the source gives them in different places.

Target: T1, BACE1 enzyme (soluble, truncated BACE enzyme, BACE1deltaTM96His) (Homo sapiens, UniProt P56817)
T1 construct: soluble, truncated BACE enzyme (BACE1deltaTM96His); His; made in house
Test: BACE1 Fluorescent Polarization (FP) Assay
Assay type: biochemical
Conditions: geometric mean of 2-4 IC50 determinations unless footnoted (^2: 5-6 determinations; ^4: single determination)
Excerpt: BACE1 Fluorescent Polarization (FP) Assay
The fluorescently tagged synthetic substrate, Biotin-GLTNIKTEEISEISŶEVEFR-C[oregon green]KK-OH can be efficiently cleaved by the beta-secretase enzyme and is therefore useful to assay beta-secretase activity in the presence or absence of inhibitory compounds. The his tagged BACE1 enzyme was affinity purified material from conditioned media of CHO-K1 cells that had been transfected to express soluble, truncated BACE enzyme (BACE1deltaTM96His). Compounds were incubated in a ½ log dose response (from a top concentration of 100 μM) with BACE1 enzyme (0.1 nM final) and the biotinylated fluorescent peptide substrate (150 nM final) in assay buffer containing 100 mM sodium acetate, pH 4.5 (brought to pH with acetic acid), and 0.001% Tween-20. Total reaction volumes of 30 μL were carried out in 384-well black plates (Thermo Scientific 4318). Plates were covered and incubated for 3 hours at 37° C. The reactions were then stopped by addition of 30 μL of 1.5 μM Streptavidin (Pierce, 21125). After a 10 minute incubation at room temperature, plates were read on a PerkinElmer Envision for fluorescence polarization (Ex485 nm/Em530 nm). The activity of the beta-secretase enzyme is detected by changes in the fluorescence polarization (Δ mP) that occur when the substrate is cleaved by the enzyme.

[1] = 8-point curve, read-out: BACE activity, 8-point curve, IC50
[2] = 11-point curve, read-out: BACE activity, 11-point curve, IC50

T1 sequence (P56817 46-457): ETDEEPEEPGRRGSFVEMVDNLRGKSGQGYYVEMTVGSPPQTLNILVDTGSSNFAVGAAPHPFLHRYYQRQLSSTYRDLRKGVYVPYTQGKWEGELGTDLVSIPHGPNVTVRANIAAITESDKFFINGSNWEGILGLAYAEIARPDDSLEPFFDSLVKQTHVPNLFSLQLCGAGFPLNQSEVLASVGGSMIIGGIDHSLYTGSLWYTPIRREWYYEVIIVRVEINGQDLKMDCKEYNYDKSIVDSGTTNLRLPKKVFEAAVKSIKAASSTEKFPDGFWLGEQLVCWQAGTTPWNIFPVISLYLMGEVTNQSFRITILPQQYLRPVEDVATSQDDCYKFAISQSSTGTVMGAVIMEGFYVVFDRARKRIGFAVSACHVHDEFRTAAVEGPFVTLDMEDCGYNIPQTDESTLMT

Compound	IC50 [1]	IC50 [2]
COc1ccc2[nH]c(CN3CC[C@]4(CCS(=O)(=O)N4c4cccc(F)c4)C[C@@H]3C)cc2c1 [Example 53, (5R,7S)-1-(3-fluorophenyl)-8-[(5-methoxy-1H-indol-2-yl)methyl]-7-methyl-2-thia-1,8-diazaspiro[4.5]decane 2,2-dioxide]	2.29 µM	4.46 µM
Cc1ccccc1-c1cccc(CN2CC[C@]3(C=CS(=O)(=O)N3c3cccc(F)c3)C[C@@H]2C)c1 [Example 54, (5R,7S)-1-(3-fluorophenyl)-7-methyl-8-[(2′-methylbiphenyl-3-yl)methyl]-2-thia-1,8-diazaspiro[4.5]dec-3-ene 2,2-dioxide]	0.0533 µM	0.137 µM
Cc1ccncc1-c1cccc(CN2CC[C@]3(CCS(=O)(=O)N3c3cccc(F)c3)C[C@@H]2C)c1 [Example 55, (5R,7S)-1-(3-fluorophenyl)-7-methyl-8-[3-(4-methy|pyridin-3-yl)benzyl]-2-thia-1,8-diazaspiro[4.5]decane 2,2-dioxide, hydrochloride salt]	0.392 µM	1.02 µM
C[C@H]1C[C@]2(CCN1Cc1ncoc1-c1cccs1)CCS(=O)(=O)N2c1cccc(F)c1 [Example 56, (5R,7S)-1-(3-fluorophenyl)-7-methyl-8-{[5-(2-thienyl)-1,3-oxazol-4-yl]methyl}-2-thia-1,8-diazaspiro[4.5]decane 2,2-dioxide, hydrochloride salt]		15.4 µM
Cc1cncc(-c2ocnc2CN2CC[C@]3(CCS(=O)(=O)N3c3cccc(F)c3)C[C@@H]2C)c1 [Example 57, (5R,7S)-1-(3-fluorophenyl)-7-methyl-8-{[5-(5-methylpyridin-3-yl)-1,3-oxazol-4-yl]methyl}-2-thia-1,8-diazaspiro[4.5]decane 2,2-dioxide, hydrochloride salt]		4.08 µM
Cc1ccsc1-c1ocnc1CN1CC[C@]2(CCS(=O)(=O)N2c2cccc(F)c2)C[C@@H]1C [Example 58, (5R,7S)-1-(3-fluorophenyl)-7-methyl-8-{[5-(3-methyl-2-thienyl)-1,3-oxazol-4-yl]methyl}-2-thia-1,8-diazaspiro[4.5]decane 2,2-dioxide, hydrochloride salt]		6.53 µM
Cc1ncsc1-c1ocnc1CN1CC[C@]2(CCS(=O)(=O)N2c2cccc(F)c2)C[C@@H]1C [Example 59, (5R,7S)-1-(3-fluorophenyl)-7-methyl-8-{[5-(4-methyl-1,3-thiazol-5-yl)-1,3-oxazol-4-yt]methyl}-2-thia-1,8-diazaspiro[4.5]decane 2,2-dioxide, hydrochloride salt]		8.82 µM
C[C@H]1C[C@]2(CCN1Cc1ncoc1-c1cncs1)CCS(=O)(=O)N2c1cccc(F)c1 [Example 60, (5R,7S)-1-(3-fluorophenyl)-7-methyl-8-{[5-(1,3-thiazol-5-yl)-1,3-oxazol-4-yl]methyl}-2-thia-1,8-diazaspiro[4.5]decane 2,2-dioxide, hydrochloride salt]		6.54 µM

Results, then the compound that gave them:

IC50 [1]	IC50 [2]	Compound
0.019 µM	0.0333 µM	Cc1ccccc1-c1cc(CN2CC[C@]3(CCS(=O)(=O)N3c3cccc(F)c3)C[C@@H]2C)ccc1O [Example 62, 5-{[(5R,7S)-1-(3-fluorophenyl)-7-methyl-2,2-dioxido-2-thia-1,8-diazaspiro[4.5]dec-8-yl]methyl-2′-methylbiphenyl-2-ol, hydrochloride salt]
5.82 µM		COC1=CS(=O)(=O)N(c2cccc(F)c2)[C@@]12CCN(Cc1cccc(OC(C)C)c1)[C@@H](C)C2 [Example 63, (5R,7S)-1-(3-fluorophenyl)-8-(3-isopropoxybenzyl)-4-methoxy-7-methyl-2-thia-1,8-diazaspiro[4.5]dec-3-ene 2,2-dioxide]
	25.7 µM	CC(C)Oc1cccc(CN2CC[C@@]3(C[C@@H]2C)C(=O)C(C)(C)S(=O)(=O)N3c2cccc(F)c2)c1 [Example 64, (5R,7S)-1-(3-fluorophenyl)-8-(3-isopropoxybenzyl)-3,3,7-trimethyl-2-thia-1,8-diazaspiro[4.5]decan-4-one 2,2-dioxide, hydrochloride salt]
